Where a SMILES comes first, the peptide text is derived from it. [ ]: non-standard residue; d: D form. Dmt = Cc1cc(O)cc(C)c1C[C@H](N)C(=O)O
Columns and labels:
[1] = test system: mitoplasts from WT and Δcrd1 yeast; assay: ANS-detected surface potential of mitoplasts; parameters: species or system Saccharomyces cerevisiae
Text: Figure 6. Interaction of SS-31 with isolated mitochondria. A, [ald]SS-31 binding with differing phospholipid composition. Left, percentages of total phospholipid of each species (phosphatidylcholine (PC), phosphatidylethanolamine (PE), cardiolipin (CL), monolyso-CL (MLCL), phosphatidylglycerol (PG), phosphatidic acid (PA), phosphatidylinositol (PI), phosphatidylserine (PS), and lysophosphatidylcholine (LPC)) in mitochondria from WT, Δtaz1, and Δcrd1 strains measured by shotgun lipidomics. Right, binding of 1 μM [ald]SS-31 with mitochondria isolated from WT, Δtaz1, and Δcrd1 yeast strains quantified as the mean fractional increase (F/F0) in aladan emission with increasing mitochondria concentration for fully energized mitochondria. Inset, relative binding of [ald]SS-31 to mitochondria (0.2 mg ml^−1) in the presence or absence of 1 μM valinomycin (val) as indicated. Values shown are means ± S.D. (error bars) (n = 3). B, comparison of [ald]SS-31 binding to mitochondria and model membranes. […]
The final goal of these experiments was to evaluate the effect of SS peptides on the surface electrostatic properties of mitochondrial membranes. […] We therefore compared the titration of mitoplasts with SS-31 and mono- and divalent cations (K^+ and Ca^2+, respectively) to evaluate the relative effects of each species on ANS-detected ψs (Fig. 6C). […]

[2] = test system: LUVs composed of POPC alone or with 20% TOCL, MLCL, or POPG; assay: Synchrotron SAXS and 31P solid-state NMR of model membranes; details: highest peptide concentration, [P]/[L]^eff = 1:5; 2 mM total lipid
Text: Amphipathic molecules such as antimicrobial peptides can induce large structural changes in membranes, including micellization, pore formation, and induction of inverted topologies ([45]). We therefore addressed whether SS-31 induced structural polymorphism within model bilayers using a range of approaches (Fig. 4). […] Similarly, based on ^31P solid-state NMR (ssNMR) measurements, these model membranes yielded line shapes consistent with lamellar bilayers ([47]), and we observed no effect of SS-31 on bilayer structure (Fig. 4B, supporting Results F, and Fig. S10B). […] Thus, these membranes are expected to exist stably in the liquid crystalline lamellar mesophase over all peptide concentrations.
Figure 4. Effects of SS-31 on structural properties of model membranes. […] LUVs composed of 20% anionic lipid (TOCL, MLCL, or POPG) in POPC background were measured in the absence or presence of peptide ([SS-31]/[lipid]^eff = 1:5) as indicated. […] Data and fits in gray show SS-31 fractional saturation (calculated from Fig. 2A, [lipid]^eff = 25 μM). […]
NMR data were recorded at 162 MHz on a Bruker AVANCE III 400-MHz WB spectrometer equipped with an HXY probe tuned for ^1H and ^31P. […] Model membranes (LUVs) were measured at 25 °C (total of 10,240 scans/sample) with a total lipid concentration of 2 mM lipid in the presence of different concentrations of SS-31 (0, 1:500, 1:50, and 1:5 [P]/[L]^eff). […]

Structure (SMILES): Cc1cc(O)cc(C)c1C[C@H](NC(=O)[C@H](N)CCCNC(=N)N)C(=O)N[C@@H](CCCCN)C(=O)N[C@@H](Cc1ccccc1)C(N)=O [SS-31, D-Arg-2′6′-dimethyl-Tyr-Lys-Phe-NH2] (H-[dR][Dmt]KF-NH2)
- effect of peptide addition prior to CaCl2 titration on Ca2+-mediated decrease in ψs ([1]; WT mitoplasts, 20 μM SS-31 added before CaCl2): strongly blunted the effects of Ca^2+ on surface potential
- effect on ANS fluorescence (ψs) of mitoplasts ([1]; titration of WT and Δcrd1 mitoplasts, n = 3): increase in ANS fluorescence
- effect on bilayer structure / lamellarity (SAXS, 31P ssNMR) [2]: did not cause major topological alterations
